The compounds below were run against T1, human CGRP receptor heterodimer (Homo sapiens, UniProt O60894+Q16602) (assay: Competition filtration binding with [3H]BIBN-4096 on SK-N-MC cell membranes). Conditions: [3H]BIBN-4096 130 pM, mean.
T1 construct: Human SK-N-MC neuroblastoma cells, endogenously expressing the human CGRP receptor, are expanded in culture flasks; host or cells: P2 membranes of SK-N-MC neuroblastoma cells
Description: The equilibrium affinity constant (Ki) at the human CGRP receptor heterodimer may be determined using standard competition filtration binding methods with membranes prepared from cultured SK-N-MC neuroblastoma cells (ATCC) and a high-affinity CGRP receptor antagonist.
Membrane Production: Human SK-N-MC neuroblastoma cells, endogenously expressing the human CGRP receptor, are expanded in culture flasks (Corning, T225) using growth media containing Eagles's Minimum Essential Media (HyClone™) supplemented with 10% heat-inactivated fetal bovine serum (GIBCO®). When cell monolayers achieve a level of 70-80% confluence, they are dissociated from the culture flasks using TrypLE™ cell dissociation media (ThermoFisher Scientific). Dissociated cells are pelleted by centrifugation at 300×g to remove the growth and dissociation media. Centrifuged cell pellets are flash frozen in liquid nitrogen (−320° F.) for 30 sec and stored frozen at −80° C. until the subsequent membrane preparation.
A membrane preparation P2 pellet (second pellet from centrifugation procedure) is generated from harvested SK-N-MC frozen cultured cell pellets by diluting these cells on ice into 20 mM Tris-HCl buffer, pH 7.4, containing protease inhibitors (Pierce). Suspended cells are Dounce homogenized on ice and centrifuged at low speed (1000×g for 20 min at 4° C.) to remove cellular organelles and debris (P1 pellet). The supernatant, containing the soluble membrane fraction, is collected and subjected to a high speed centrifugation step (25,000×g for 1 hr at 4° C.) to isolate the resultant P2 membrane pellet. […] Protein concentration is determined using the Bradford Protein Assay (ThermoFisher Scientific). […]
Data Analysis: Bound radioactivity may be counted using a MicroBeta® Trilux Scintillation Counter (PerkinElmer®). […] Relative IC50 values are calculated using a four-parameter logistic curve fitting program (GraphPad Prism v8.3.0). Equilibrium dissociation binding constants (Ki) for the compounds are calculated from the following equation: […]
With Cc1cc(N2CC(F)C2)cc(OCc2ccc([C@@H](C)[C@@]3(C)C(=O)NC[C@@H]3CF)cc2)n1 [Example 3, (3R,4R)-3-[(1R)-1-[4-[[4-(3-fluoroazetidin-1-yl)-6-methyl-2-pyridyl]oxymethyl]phenyl]ethyl]-4-(fluoromethyl)-3-methyl-pyrrolidin-2-one] the Ki was 0.93 nM.
In the case of Cc1cc(N2CCC2)cc(OCc2ccc([C@@H](C)[C@@]3(C)C(=O)NC[C@@H]3CF)cc2)n1 [Example 1, (3R,4R)-3-[(1R)-1-[4-[[4-(azetidin-1-yl)-6-methyl-2-pyridyl]oxymethyl]phenyl]ethyl]-4-(fluoromethyl)-3-methyl-pyrrolidin-2-one], the Ki is reported as 0.35 nM.
For Cc1cc(N2CC(F)C2)cc(OCc2ccc([C@@H](C)[C@@]3(C)C(=O)NC[C@@H]3C)cc2)n1 [Example 2, (3R,4R)-3-[(1R)-1-[4-[[4-(3-fluoroazetidin-1-yl)-6-methyl-2-pyridyl]oxymethyl]phenyl]ethyl]-3,4-dimethyl-pyrrolidin-2-one], the Ki was 0.98 nM.
